Entries after “also recorded” stand apart in the source; their conditions may differ. Like-named read-outs stand apart in the source and are kept apart here.

For assay [1], the system named is Scopolamine induced deficit in passive avoidance test in mice. Nature of the assay: Single trial passive avoidance test, scopolamine induced deficit (in vivo). To be noted: for In Vivo (passive avoidance test, significance of TLT increase): scopolamine induced deficit, oral for 3 days; for In Vivo (passive avoidance test, significance of TLT increase) / effectiveness in passive avoidance test (in vivo), in words: mice; for effectiveness in passive avoidance test (in vivo), in words: scopolamine induced memory deficit; for TLT on 2nd trial as compared to 1st trial after scopolamine: mice pretreated po x 3 days (100 mg/kg FIG. 1a; 50 mg/kg FIG. 1b), scopolamine 5 min prior to 1st trial. The method, then: Single trial passive avoidance is widely used as experimental test to assess learning memory functions in rodents. Scopolamine induced impairment in passive avoidance (in vivo) and inhibition of acetylcholinesterase (in vitro) in rodents are commonly employed and screening test to predict potential of an acetylcholinesterase inhibitor as cognitive enhancer (anti-dementic) drug.
Passive Avoidance Test (In Vivo):
The study was conducted in adult Swiss male mice of 3-4 months (wt. 20-25 g) were kept in standard housing condition with 12 h light and dark cycle. The food and water were available ad libitum.
The mice were subjected to single trial passive avoidance test as described by Brioni.
The passive avoidance test was studied by a computerized shuttle box (Columbus Instruments, Ohio, USA) provided with a software program PACS 30. The shuttle box is comprised of two compartments. An automated door was used to isolate the compartments. After an exploration period of 30 s for acclimatization the animal was subjected to a trial of 270 seconds. Each mouse was placed in the bright compartment and on transfer into the dark compartment it was given an electric shock (0.5 mA for 5 s) through floor grid. The transfer of mice from the bright to dark compartment was recorded as transfer latency time (TLT) in seconds. TLT was recorded in control and treated groups (1st Trial, acquisition) and then after 24 h (2nd Trial, retention). An increase in the TLT on 2nd Trial (retention) as compared to 1st Trial (acquisition) was taken as the criterion for successful learning and memory (cognitive activity).
Scopolamine Induced Deficit (Dementia)
Scopolamine, a muscarinic antagonist known to produce impairment in cognitive functions (dementia) in human as well as in experimental animals, was used to produce deficit (no significant increase on 2nd trial) in passive avoidance learning. Scopolamine was administered 5 min prior to 1st trial. Reversal of scopolamine induced deficit i.e. significant increase in 2nd trial by test substance indicates potential anti-dementia activity. […].
The test substance Columbianetin was administered orally in dose of 100 m/kg (1% aqueous suspension in gum acacia) for 3 days. The treated animals were subjected to 1st trial after 60 min of 3rd dose of test substance. Scopolamine was administered 5 min prior to 1st trial in test group.
The control group received 1 ml/kg of vehicle (1% aqueous suspension in gum acacia) orally for 3 days. Among the control mice half (n=5) received scopolamine 5 min prior to 1st trial (Control—dementia) and the remaining half were subjected to passive avoidance test (Control—trained).
Level of p value<0.05 indicates statistically significant difference.
Mean values and standard error (S.E.) of mean were calculated for TLT and specific activity of AChE in the different regions of brain samples of each group. The significance of difference between the values of AChE activity and TLT of two groups was determined by one-way ANOVA test that followed by Dunnett's test.

The target of assay [2] is T1, Acetylcholinesterase (AChE) (Rattus norvegicus, UniProt P37136).
T1 construct: Aliquots of this supernatant was diluted in the ratio of 1:10 and used as a source of enzyme for the assay; from tissue; host or cells: whole brain of adult male SD rats; 100,000 x g supernatant of a 10% homogenate with Triton X-100
Kind of assay: Acetylcholinesterase (AChE) assay in brain (in vitro), Ellman method. Format: biochemical. As for the experimental part:
Acetylcholinesterase (AChE) Assay in Brain (In Vitro)
The study was conducted in adult SD male rats (200-250 g). The rats were perfused under mild ether anesthesia through heart with ice cooled normal saline (0.9% NaCl) to reduce blood-borne cholinesterase from the brain. After perfusion the whole brain was taken out. A 10% (w/v) homogenate of brain was prepared first by homogenizing in an Ultra-Turrax T25 homogenizer at a speed of 9500 rpm thrice giving intervals for few seconds in between the runs, with sodium phosphate buffer (30 mmol/lit, pH 7.0). Sodium phosphate buffer was taken in a volume half to the final volume required for 10% homogenate.
1% Triton X-100 (1% w/v in 30 mmol/lit. sodium phosphate buffer, pH 7.0) is then added in a volume to make the final volume for 10% homogenate, slowly while stirring the homogenate on ice. The homogenate was centrifuged at 100,000×g at 4° C. in a Beckman Ultracentrifuge (LE 80) using a fixed angle rotor (80 Ti) for 60 min. Supernatant was collected and stored at 4° C. Aliquots of this supernatant was diluted in the ratio of 1:10 and used as a source of enzyme for the assay.
The assay of AChE was performed according to method described by Ellman et al. A kinetic profile of the enzyme activity was studied spectrophotometrically at 412 nm at an interval of 15 s. The assay for each sample was run in duplicate and each experiment was performed thrice. The specific activity of AChE is expressed in μmoles/min/mg of protein. The test substance (dissolved in DMSO) was incubated with enzyme source in concentration of 100 μg/1 ml of reaction mixture for 30 min at 37° C. prior to obtain kinetic profile of AChE activity. The AChE inhibitory activity was calculated on the basis of % decrease change from control values.
Protein was estimated in the brain samples by modified Lowry's method. Bovine serum albumin (BSA) was used as standard in the concentration of 1 mg/ml. was estimated in the range of 0.01-0.1 mg/ml. […]
(In general: In Ellman's method for cholinesterases, released thiocholine reacts with DTNB.)

The subject of assay [3] is Scopolamine induced deficit in passive avoidance test in mice. Kind of assay: Single trial passive avoidance test, scopolamine induced deficit (in vivo). To be noted: po + scopolamine, % increase in TLT of 2nd trial from TLT of 1st trial.
[4] abbreviates: 0.5 h; 100 μg/1 ml of reaction mixture, incubated 30 min at 37° C., rat brain enzyme source; read-out: In Vitro %) (AChE inhibitory activity, % decrease change from control).

T1 sequence (P37136 32-614): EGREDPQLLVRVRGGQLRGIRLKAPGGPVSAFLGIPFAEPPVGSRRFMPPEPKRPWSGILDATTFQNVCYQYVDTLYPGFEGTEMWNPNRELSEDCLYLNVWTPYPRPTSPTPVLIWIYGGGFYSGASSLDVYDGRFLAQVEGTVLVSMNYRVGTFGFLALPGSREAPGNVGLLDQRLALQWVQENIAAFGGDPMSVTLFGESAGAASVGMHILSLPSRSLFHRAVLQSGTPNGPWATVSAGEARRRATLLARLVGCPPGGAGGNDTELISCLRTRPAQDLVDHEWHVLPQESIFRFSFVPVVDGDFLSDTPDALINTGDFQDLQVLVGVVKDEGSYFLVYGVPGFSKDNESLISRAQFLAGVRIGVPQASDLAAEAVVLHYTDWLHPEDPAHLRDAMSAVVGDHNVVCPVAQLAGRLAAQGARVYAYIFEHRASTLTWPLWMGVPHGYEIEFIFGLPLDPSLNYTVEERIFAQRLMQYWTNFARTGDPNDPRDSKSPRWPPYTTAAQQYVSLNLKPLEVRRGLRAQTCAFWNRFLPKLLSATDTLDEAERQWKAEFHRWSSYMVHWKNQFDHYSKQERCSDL

With `CC1(C)C=Cc2c(ccc3ccc(=O)oc23)O1` [Seselin], the “In Vivo (passive avoidance test, significance of TLT increase)” value in assay [1] is “No significant activity”.
For the molecule `COc1ccc2c(C)cc(=O)oc2c1` [4-Methyl-7-methoxycoumarin], in assay [2] (setting [4]), the inhibition at 100 µg/mL was determined as 48.9%. Further, in assay [1], the “In Vivo (passive avoidance test, significance of TLT increase)” value is given as “No significant activity” and the “effectiveness in passive avoidance test (in vivo), in words” value (“effectiveness in passive avoidance test” below) is on record as “effective”.
Take `Cc1cc(=O)oc2c(OCc3ccccc3)c(OCc3ccccc3)ccc12` [4-Methyl-7,8-dibenzyloxycoumarin]: in assay [2] (setting [4]), the inhibition at 100 µg/mL came to 24.1%. Besides, the “In Vivo (passive avoidance test, significance of TLT increase)” value in assay [1] was “No significant activity”.
For `COc1ccc2ccc(=O)oc2c1` [7-Methoxycoumarin], the “% Memory retention” value in assay [3] (AP20am samples 50 mg/kg) stood at 295%. The inhibition at 100 µg/mL in assay [2] (setting [4]) was 25.2%. Also, in assay [1], the “TLT on 2nd trial as compared to 1st trial after scopolamine” value is “significant increase in TLT on 2nd trial”; the “In Vivo (passive avoidance test, significance of TLT increase)” value is on record as “High significant activity”; the “effectiveness in passive avoidance test” value was “most effective”.
Turning to `CC(C)=CCc1cc2ccc(=O)oc2cc1O` [7-Hydroxy-6-prenylcoumarin], in assay [2] (0.5 h, read-out: In Vitro %) (AChE inhibitory activity, % decrease change from control)), the inhibition at 100 µg/mL worked out at 42.2%. For the same molecule, in assay [1], the “In Vivo (passive avoidance test, significance of TLT increase)” value is on record as “No significant activity”.
In the case of `C#CC(C)(C)c1ccc2ccc(=O)oc2c1` [7-Dimethylpropargylcoumarin], the “In Vivo (passive avoidance test, significance of TLT increase)” value in assay [1] is given as “No significant activity”.
Still for that read-out and setting: then `O=c1ccc2ccc(O)cc2o1` [7-Hydroxycoumarin], with “No significant activity”.
Consider `CC(C)(O)[C@@H]1Cc2c(ccc3ccc(=O)oc23)O1` [Columbianetin], for which the inhibition at 100 µg/mL in assay [2] (setting [4]) came to 13.9%. The “In Vivo (passive avoidance test, significance of TLT increase)” value in assay [1] was “No significant activity”.
Regarding `CC(=O)Oc1ccc2c(C)cc(=O)oc2c1` [4-Methyl-7-acetyloxycoumarin], the inhibition at 100 µg/mL in assay [2] (setting [4]) was 23.9%. In addition, in assay [1], the “TLT on 2nd trial as compared to 1st trial after scopolamine” value is “significant increase in TLT on 2nd trial” and the “In Vivo (passive avoidance test, significance of TLT increase)” value is reported as “Significant activity (P < 0.01)”.
In the case of `Cc1cc(=O)oc2cc(O)ccc12` [4-Methyl-7-hydroxycoumarin], the “% Memory retention” value in assay [3] (AP20am samples 50 mg/kg) is 376%. For the same molecule, the inhibition at 100 µg/mL in assay [2] (setting [4]) came to 17.4%. Further, in assay [1], the “TLT on 2nd trial as compared to 1st trial after scopolamine” value is reported as “significant increase in TLT on 2nd trial”; the “In Vivo (passive avoidance test, significance of TLT increase)” value is recorded as “High significant activity”; the “effectiveness in passive avoidance test” value is “most effective”.
As to `C=CCOc1ccc2ccc(=O)oc2c1` [7-Allyloxycoumarin], in assay [1], the “TLT on 2nd trial as compared to 1st trial after scopolamine” value is recorded as “significant increase in TLT on 2nd trial” and the “In Vivo (passive avoidance test, significance of TLT increase)” value is “Significant activity (P < 0.05)”.
Turning to `CC(=O)Oc1ccc2c(C)cc(=O)oc2c1OC(C)=O` [4-Methyl-7,8-diacetyloxycoumarin], the inhibition at 100 µg/mL in assay [2] (setting [4]) worked out at 24%. Also, the “In Vivo (passive avoidance test, significance of TLT increase)” value in assay [1] was “No significant activity”.
For `CC1(C)CCc2cc3ccc(=O)oc3cc2O1` [Dihydroxanthyletin] the same measures were 37.8% and “No significant activity”.
Consider `O=c1ccc2ccc(OCc3ccccc3)cc2o1` [7-Benzyloxycoumarin], for which, in assay [1], the “TLT on 2nd trial as compared to 1st trial after scopolamine” value is “significant increase in TLT on 2nd trial” and the “In Vivo (passive avoidance test, significance of TLT increase)” value was “Significant activity”.
In the case of `CC(C)=CCc1c(O)ccc2ccc(=O)oc12` [7-Hydroxy-8-prenylcoumarin], the “In Vivo (passive avoidance test, significance of TLT increase)” value in assay [1] is “No significant activity”.
`CC(C)(O)[C@@H]1Cc2cc3ccc(=O)oc3cc2O1` (racemic) [(±) Marmesin]: in assay [2] (100 μg/1 ml of reaction mixture, incubated 30 min at 37° C., rat brain enzyme source), the “In Vitro %) (AChE inhibitory activity, % decrease change from control)” value is listed as 23.91%. The “In Vivo (passive avoidance test, significance of TLT increase)” value in assay [1] was “Significant activity (P < 0.01)”.
Consider `Cc1cc(=O)oc2c(O)c(O)ccc12` [4-Methyl-7,8-dihydroxycoumarin], for which, in assay [2] (setting [4]), the inhibition at 100 µg/mL is 14.1%. Also, in assay [1], the “In Vivo (passive avoidance test, significance of TLT increase)” value is listed as “No significant activity”.
For `COc1ccc2c(C)cc(=O)oc2c1OC` [4-Methyl-7,8-dimethoxycoumarin], in that order: 14.2% and “No significant activity”.
With `CC(C)=CCOc1ccc2ccc(=O)oc2c1` [7-Prenyloxycoumarin], the “In Vivo (passive avoidance test, significance of TLT increase)” value in assay [1] is “No significant activity”.
For `CC(=O)Oc1ccc2ccc(=O)oc2c1` [7-Acetyloxycoumarin], in assay [3] (AP20am samples 50 mg/kg), the “% Memory retention” value is listed as 321%. For the same molecule, the inhibition at 100 µg/mL in assay [2] (setting [4]) is 39.1%. In addition, in assay [1], the “TLT on 2nd trial as compared to 1st trial after scopolamine” value was “significant increase in TLT on 2nd trial”; the “In Vivo (passive avoidance test, significance of TLT increase)” value was “High significant activity”; the “effectiveness in passive avoidance test” value was “most effective; also recorded: effective”.
`COc1cc2c(cc1OC)C(=O)C(CC1CCN(Cc3ccccc3)CC1)C2` (centres unmarked) [Donepezil, reference compound]: the “% Memory retention” value in assay [3] (Standard drug Donepezil 10 mg/kg) was found to be 288%.

Source of the values: patent US8188143B2, “Pharmaceutical composition useful as acetylcholinesterase inhibitors” (Council of Scientific and Industrial Research, priority 2006, dated 2012).
